Measured values as given in patent publication US10059741B2 (priority 2015, dated 2018).
Where two headings read alike, the source gives them in different places. Bridge positions count the residues as written; N and C are the ends. Square brackets hold non-standard residues; d marks the D form. Peptide text beside a SMILES is read from it. R8 = C=CCCCCCC[C@@](C)(N)C(=O)O; S5 = C=CCCC[C@](C)(N)C(=O)O; Nle = CCCC[C@H](N)C(=O)O; Aib = CC(C)(N)C(=O)O

Key:
[1] = system: H5N1 A/Hong Kong/213/2003; assay: microbe, parasite or virus in culture; type: cell-based, influenza A virus; conditions: read-out: EC50
[2] = system: H1N1 California/07/2009; assay: microbe, parasite or virus in culture; type: cell-based, influenza A virus
[3] = system: H3N2 Perth/16/2009; assay: microbe, parasite or virus in culture; type: cell-based, influenza A virus
[4] = system: H7N9 A/Anhui/1/2013; assay: microbe, parasite or virus in culture; type: cell-based, influenza A virus; conditions: read-out: EC50
[5] = system: H1N1 California/07/2009; assay: microbe, parasite or virus in culture; type: cell-based, influenza A virus; remark: listed apart in the source
[6] = system: influenza virus, various viral strains; assay: organism not typed; type: cell-based; conditions: read-out: EC50
[7] = system: H1N1 A/Solomon Island/03/2006; type: cell-based, influenza A virus; conditions: read-out: EC50
[8] = in vitro; conditions: dog
[9] = system: H3N2 Perth/16/2009; assay: microbe, parasite or virus in culture; type: cell-based, influenza A virus; remark: listed apart in the source
[10] = Cytopathic effect/toxicity (Neutral red), MDCK cells, read-out: EC50 (μM) H1N1 California/07/2009
[11] = Influenza A H1N1 California/07/20/09 (so in the source), later run, Drug Assay Neutral Red, read-out: EC50
[12] = Influenza A H1N1 California/07/20/09 (so in the source), Drug Assay Visual/Neutral Red
[13] = Influenza A H1N1 California/07/2009, Drug Assay Neutral Red, read-out: EC50
[14] = Cytopathic effect/toxicity (Neutral red), MDCK cells, read-out: EC50 (μM) H3N2 Perth/16/2009
[15] = Influenza A H3N2 Perth/16/2006 (so in the source), Drug Assay Neutral Red, read-out: EC50
[16] = Influenza A H3N2 Perth/16/2009, last run, Drug Assay Neutral Red, read-out: EC50
[17] = Influenza A H3N2 Perth/16/2009, Drug Assay Visual/Neutral Red
[18] = Cytopathic effect/toxicity (Visual), MDCK cells, read-out: EC50 (μM) H1N1 California/07/2009
[19] = Influenza A H1N1 California/07/2009, Drug Assay Visual, read-out: EC50
[20] = Influenza A H1N1 A/Solomon Is./3/2006-M, Drug Assay Visual
[21] = Influenza A H1N1 A/Solomon Is./3/2006-M, Drug Assay Neutral Red
[22] = CC50 (μM) H1N1 California/07/2009, Cell cytotoxicity (CC), run with H1N1 California/07/2009
[23] = CC50 (μM) H3N2 Perth/16/2009, Cell cytotoxicity (CC), run with H3N2 Perth/16/2009
[24] = CC50, run with Influenza A H1N1 A/Solomon Is./3/2006-M, Neutral Red
[25] = CC50, run with Influenza A H1N1 A/Solomon Is./3/2006-M, Visual
[26] = CC50, run with Influenza A H1N1 California/07/20/09 (so in the source), later run, Neutral Red
[27] = CC50, run with Influenza A H1N1 California/07/20/09 (so in the source), Visual/Neutral Red
[28] = CC50, run with Influenza A H1N1 California/07/2009, Neutral Red
[29] = CC50, run with Influenza A H1N1 California/07/2009, Visual
[30] = CC50, run with Influenza A H3N2 Perth/16/2006 (so in the source), Neutral Red
[31] = CC50, run with Influenza A H3N2 Perth/16/2006 (so in the source), Visual
[32] = CC50, run with Influenza A H3N2 Perth/16/2009, last run, Neutral Red
[33] = CC50, run with Influenza A H3N2 Perth/16/2009, Visual/Neutral Red
[34] = Cytopathic effect/toxicity (Visual), MDCK cells, read-out: EC50 (μM) H3N2 Perth/16/2009
[35] = Influenza A H3N2 Perth/16/2006 (so in the source), Drug Assay Visual, read-out: EC50
[36] = read-out: EC50 (μM) H1N1 California/07/2009
[37] = read-out: EC50 (μM) H3N2 Perth/16/2009

| SMILES | EC50 [1] [µM] | EC50 [2, 10] [µM] | EC50 [2, 13] [µM] | EC50 [3, 14] [µM] | EC50 [3, 15] [µM] | EC50 [4] [µM] | EC50 [5, 18] [µM] | EC50 [5, 19] [µM] | CC50 ([8]; CC50) [µM] | CC50 [8, 22] [µM] | CC50 [8, 23] [µM] | CC50 [8, 24] [µM] | CC50 [8, 25] [µM] | CC50 [8, 26] [µM] | CC50 [8, 28] [µM] | CC50 [8, 29] [µM] | CC50 [8, 30] [µM] | CC50 [8, 31] [µM] | EC50 [9, 34] [µM] | EC50 [9, 35] [µM] | other results |
| --- | --- | --- | --- | --- | --- | --- | --- | --- | --- | --- | --- | --- | --- | --- | --- | --- | --- | --- | --- | --- | --- |
| CCCC[C@H](NC(C)=O)C(=O)N[C@@H](CC(=O)O)C(=O)N[C@H](C(=O)N[C@@H](CC(N)=O)C(=O)N[C@@]1(C)CCCC=CCCC[C@@](C)(C(=O)N[C@@H](CC(C)C)C(=O)N[C@@H](C)C(=O)N[C@H](C(=O)N[C@@H](CCC(N)=O)C(=O)NC(C)(C)C(=O)N[C@@H](C)C(=O)N[C@@H](C)C(=O)N[C@@H](C)C(N)=O)C(C)C)NC(=O)[C@H](CC(C)C)NC(=O)[C@H](CC(C)C)NC(=O)[C@H]([C@@H](C)O)NC1=O)C(C)C [SP-21] (Ac-[Nle]DVN[S5]TLL[S5]LAVQ[Aib]AAA-NH2; staple 5-9) | 39 | 1.5 to 10 | 4.6 | 1.5 to 10 | 2.1 | 17 | < 1.5 | 1.3 | > 50 | > 100 | > 100 | > 100 | > 100 | > 100 | > 100 | > 100 | > 100 | > 100 | < 1.5 | 0.54 | EC50 [2, 11]: 21 µM; EC90 [2, 12]: 9.6 µM; EC50 [3, 16]: 4.8 µM; EC90 [3, 17]: 8 µM; EC50 [6, 20]: 4.8 µM; EC50 [7, 21]: 5.3 µM; CC50 [8, 27]: > 100 µM; CC50 [8, 32]: > 100 µM; CC50 [8, 33]: > 100 µM |
| CCCC[C@H](NC(C)=O)C(=O)N[C@@H](CC(=O)O)C(=O)N[C@H](C(=O)N[C@@H](CC(N)=O)C(=O)N[C@@]1(C)CCCC=CCCC[C@@](C)(C(=O)N[C@@H](CC(C)C)C(=O)N[C@@H](C)C(=O)N[C@H](C(=O)N[C@@H](CCC(N)=O)C(=O)N[C@@H](C)C(=O)N[C@@H](C)C(=O)NC(C)(C)C(=O)N[C@@H](C)C(N)=O)C(C)C)NC(=O)[C@H](CC(C)C)NC(=O)[C@H](CC(C)C)NC(=O)[C@H]([C@@H](C)O)NC1=O)C(C)C [SP-22] (Ac-[Nle]DVN[S5]TLL[S5]LAVQAA[Aib]A-NH2; staple 5-9) | > 50 |  |  |  |  | 13 |  |  | > 50 | > 100 | > 100 | > 100 | > 100 | > 100 | > 100 | > 100 | > 100 | > 100 |  |  | EC90 [2]: 6.5 µM; EC50 [2, 36]: 1.5 to 10 µM; EC90 [3]: 59 µM; EC50 [3, 37]: < 1.5 µM; EC50 ([5]; read-out: EC50): 1.8 µM; EC50 [5, 36]: 1.5 to 10 µM; EC50 [6]: 12 µM; EC50 [7]: 29 µM; CC50 [8, 27]: > 100 µM; CC50 [8, 32]: > 100 µM; CC50 [8, 33]: > 100 µM; EC50 ([9]; read-out: EC50): 0.54 µM; EC50 [9, 37]: < 1.5 µM |
| CCCC[C@H](NC(C)=O)C(=O)N[C@@H](CC(=O)O)C(=O)N[C@H](C(=O)N[C@@H](CC(N)=O)C(=O)N[C@]1(C)CCCCCCC=CCCC[C@@](C)(C(=O)N[C@@H](C)C(=O)N[C@@H](C)C(=O)N[C@@H](CCC(N)=O)C(=O)N[C@@H](C)C(=O)N[C@@H](C)C(N)=O)NC(=O)[C@H](C)NC(=O)[C@H](CC(C)C)NC(=O)[C@H](Cc2ccccc2)NC(=O)[C@H](CC(C)C)NC(=O)[C@H](CC(C)C)NC(=O)[C@H]([C@@H](C)O)NC1=O)C(C)C [SP-24] (Ac-[Nle]DVN[R8]TLLFLA[S5]AAQAA-NH2; staple 5-12) |  | 1.5 to 10 | 6.9 | 1.5 to 10 | 3.4 |  | 1.5 to 10 | 4.3 |  | > 100 | > 100 |  |  |  | > 100 | > 100 | > 100 | > 100 | 1.5 to 10 | 2.5 |  |
| CCCC[C@H](NC(C)=O)C(=O)N[C@@H](CC(=O)O)C(=O)N[C@H](C(=O)N[C@@H](CC(N)=O)C(=O)N[C@]1(C)CCCCCCC=CCCC[C@@](C)(C(=O)N[C@@H](C)C(=O)N[C@@H](C)C(=O)N[C@@H](C)C(=O)N[C@@H](C)C(=O)N[C@@H](C)C(N)=O)NC(=O)[C@H](C)NC(=O)[C@H](CC(C)C)NC(=O)[C@H](Cc2ccccc2)NC(=O)[C@H](CC(C)C)NC(=O)[C@H](CC(C)C)NC(=O)[C@H]([C@@H](C)O)NC1=O)C(C)C [SP-25] (Ac-[Nle]DVN[R8]TLLFLA[S5]AAAAA-NH2; staple 5-12) | > 50 | < 1.5 | 1.1 | < 1.5 | 0.43 | 33 | < 1.5 | 0.57 | > 50 | > 100 | > 100 | > 100 | > 100 | > 100 | > 100 | > 100 | > 100 | > 100 | < 1.5 | 0.34 | EC50 [2, 11]: 6.6 µM; EC90 [2, 12]: 8.2 µM; EC50 [3, 16]: 49 µM; EC90 [3, 17]: 49 µM; EC50 [6, 20]: 3.6 µM; EC50 [7, 21]: 6.5 µM; CC50 [8, 27]: > 100 µM; CC50 [8, 32]: > 100 µM; CC50 [8, 33]: > 100 µM |
| CCCC[C@H](NC(C)=O)C(=O)N[C@@H](CC(=O)O)C(=O)N[C@H](C(=O)N[C@@H](CC(N)=O)C(=O)N[C@]1(C)CCCCCCC=CCCC[C@@](C)(C(=O)N[C@@H](CCC(N)=O)C(=O)N[C@@H](C)C(=O)N[C@@H](CCC(N)=O)C(=O)N[C@@H](C)C(=O)N[C@@H](C)C(N)=O)NC(=O)[C@H](C)NC(=O)[C@H](CC(C)C)NC(=O)[C@H](Cc2ccccc2)NC(=O)[C@H](CC(C)C)NC(=O)[C@H](CC(C)C)NC(=O)[C@H]([C@@H](C)O)NC1=O)C(C)C [SP-26] (Ac-[Nle]DVN[R8]TLLFLA[S5]QAQAA-NH2; staple 5-12) |  | 1.5 to 10 | 2.1 | 10 to 25 | 23 |  | < 1.5 | 0.75 |  | > 100 | > 100 |  |  |  | > 100 | > 100 | > 100 | > 100 | 10 to 25 | 14 |  |
| CCCC[C@H](NC(C)=O)C(=O)N[C@@H](CC(=O)O)C(=O)N[C@H](C(=O)N[C@@H](CC(N)=O)C(=O)N[C@]1(C)CCCCCCC=CCCC[C@@](C)(C(=O)N[C@@H](CCC(N)=O)C(=O)N[C@@H](C)C(=O)N[C@@H](C)C(=O)N[C@@H](C)C(=O)N[C@@H](C)C(N)=O)NC(=O)[C@H](C)NC(=O)[C@H](CC(C)C)NC(=O)[C@H](Cc2ccccc2)NC(=O)[C@H](CC(C)C)NC(=O)[C@H](CC(C)C)NC(=O)[C@H]([C@@H](C)O)NC1=O)C(C)C [SP-27] (Ac-[Nle]DVN[R8]TLLFLA[S5]QAAAA-NH2; staple 5-12) | > 50 | < 1.5 | 0.44 | 1.5 to 10 | 1.7 | 9.6 | < 1.5 | 0.57 | > 50 | > 100 | > 100 | > 100 | > 100 | > 100 | > 100 | > 100 | > 100 | > 100 | < 1.5 | 0.32 | EC50 [2, 11]: 8.7 µM; EC90 [2, 12]: 8 µM; EC50 [3, 16]: 35 µM; EC90 [3, 17]: 35 µM; EC50 [6, 20]: 32 µM; EC50 [7, 21]: 75 µM; CC50 [8, 27]: > 100 µM; CC50 [8, 32]: > 100 µM; CC50 [8, 33]: > 100 µM |
